Source: patent US6861555B2, “Calcium dicarboxylate ethers, methods of making same, and treatment of vascular disease and diabetes therewith” (Warner-Lambert Company, priority 2000, dated 2005)
Where a name gives a salt, the structure may show the parent alone.

Key:
[1] = Bulk density (loose and tapped) of CI-1027 lots; settings: for Bulk Density Loose / Bulk Density Tapped: per lot
dog hepatocytes = assay: In vitro metabolism in dog hepatocytes using radiolabeled compound; type: in vitro ADME
[2] = Mean recovery of 14C dose in excreta, intact and bile-fistula cannulated rats; type: in vivo, rat; settings: 10 mg/kg
[3] = in vivo
Experimental: Metabolite profiling is performed by HPLC with radiometric detection and metabolites arc identified by LC/RAM/MS/MS.

plasma proteins = assay: In vitro binding to plasma proteins; type: in vitro ADME
[4] = Pharmacokinetics of CI-1027 in rat; type: in vivo
[5] = Pharmacokinetics of CI-1027 in monkey; type: in vivo
[6] = system: Lp(a) and other lipoprotein parameters; assay: Effects on Lp(a) and other lipoprotein parameters, oral gavage, transgenic mouse study; type: in vivo, Lp(a) transgenic mice; parameters: maximum decrease in total plasma cholesterol: dose or concentration left out as unconfirmed
Experimental: (§1) The effects of CI-1027 of Formula II, Crystalline Form 1, on Lp(a) and other lipoprotein parameters in two models of elevated Lp(a) were determined by the following in vivo assays
(§2) Cynomolgus macaque monkeys and Lp(a) transgenic mice are dosed with CI-1027 at 3, 10, 30, 100, or 300 mg/kg for 2 weeks by oral gavage. […] In the transgenic mouse study, female mice were allocated into five groups with equivalent Lp(a) levels, and dosed by oral gavage with either vehicle alone or vehicle plus CI-1027 (3, 10, 30, and 100 mg/kg/day). Blood is sampled weekly (2 weeks prior to treatment, 2 weeks on treatment).

[7] = Mean recovery of 14C dose in excreta, intact and bile-fistula cannulated monkeys; type: in vivo, monkey; settings: 10 mg/kg
rat hepatocytes = assay: In vitro metabolism in rat hepatocytes using radiolabeled compound; type: in vitro ADME
[8] = system: Lp(a) and other lipoprotein parameters; assay: Effects on Lp(a) and other lipoprotein parameters, oral gavage for 2 weeks, monkeys; type: in vivo, Cynomolgus macaque monkeys
Experimental: as §1, §2

monkey hepatocytes = assay: In vitro metabolism in monkey hepatocytes using radiolabeled compound; type: in vitro ADME
[9] = Pharmacokinetics of CI-1027 in dog; type: in vivo
[10] = Pharmacokinetics of CI-1027, species not stated; type: in vivo
[11] = Observed electrostatic charge retention of bulk product; type: physicochemical; settings: compared with amorphous product / salts dried without humidification
From the text: Additional analysis on the post-humidification dried dialkylcarboxylic acid ether monocalcium salt (II) is indicative of the formation of a salt which is associated with between about 0.1 and about 1 molar equivalent of water per equivalent of dialkylcarboxylic acid ether calcium salt (II), as shorn in FIGS. 1 and 15, for example.

[12] = Salt form and hygroscopic status: comparison of salts of 72953; type: physicochemical; settings: after complete drying
From the text: Following the general procedure of Example 1, 72953 was reacted with sodium hydroxide, potassium hydroxide, and acetylcholine in stoichiometric ratios of 1:1 per dialkanoic acid molecule, and 2:1 per dialkanoic acid molecule. The properties of the solids thus prepared, following complete drying, were compared to the calcium salt (CI-1027) from Example 1.

[13] = in vivo, other: intravenous (IV) and per orals (PO), intravenous (IV) and per orals (PO), read-out: apparent elimination half-life

In the case of `CC(C)(CCCCOCCCCC(C)(C)C(=O)[O-])C(=O)[O-].[Ca+2]` [listing 1 of 2 here], the “Bulk Density Loose” value [1] is reported as 0.336 g/mL and the “Bulk Density Tapped” value [1] is reported as 0.439 g/mL.
In the case of `CC(C)(CCCCOCCCCC(C)(C)C(=O)[O-])C(=O)[O-].[Ca+2]` [listing 2 of 2 here], the “bulk density, average” value ([1]; amorphous form) is reported as “about 0.3 gm/mL”.
In the case of “6-(5-carboxy-5-methyl-hexyloxy)-2,2-dimethylhexanoic acid monocalcium salt hydrate, Crystalline Form 1 [Example 1]”, the “bulk density following tapping, average” value ([1]; highly crystalline salt after humidification process) is reported as “about 0.4 g/mL”.
With `CC(C)(CCCCOCCCCC(C)(C)C(=O)[O-])C(=O)[O-].[Ca+2]` [CD-3055] the “Bulk Density Loose” value [1] was 0.280 g/mL and the “Bulk Density Tapped” value [1] was 0.315 g/mL.
With `CC(C)(CCCCOCCCCC(C)(C)C(=O)[O-])C(=O)[O-].[Ca+2]` [CD-3082] the “Bulk Density Loose” value [1] was 0.234 g/mL and the “Bulk Density Tapped” value [1] was 0.337 g/mL.
In the case of `CC(C)(CCCCOCCCCC(C)(C)C(=O)[O-])C(=O)[O-].[Ca+2]` [CD-3102], the “Bulk Density Loose” value [1] is reported as 0.215 g/mL and the “Bulk Density Tapped” value [1] is reported as 0.270 g/mL.
In the case of `CC(C)(CCCCOCCCCC(C)(C)C(=O)[O-])C(=O)[O-].[Ca+2]` [CD-3103], the “Bulk Density Loose” value [1] is reported as 0.343 g/mL and the “Bulk Density Tapped” value [1] is reported as 0.484 g/mL.
With `CC(C)(CCCCOCCCCC(C)(C)C(=O)[O-])C(=O)[O-].[Ca+2]` [CD-3111] the “Bulk Density Loose” value [1] was 0.218 g/mL and the “Bulk Density Tapped” value [1] was 0.264 g/mL.
With `CC(C)(CCCCOCCCCC(C)(C)C(=O)[O-])C(=O)[O-].[Ca+2]` [CD-3135] the “Bulk Density Loose” value [1] was 0.242 g/mL and the “Bulk Density Tapped” value [1] was 0.379 g/mL.
In the case of `CC(C)(CCCCOCCCCC(C)(C)C(=O)[O-])C(=O)[O-].[Ca+2]` [CD-3221A], the “Bulk Density Loose” value [1] is reported as 0.372 g/mL and the “Bulk Density Tapped” value [1] is reported as 0.521 g/mL.
In the case of `CC(C)(CCCCOCCCCC(C)(C)C(=O)[O-])C(=O)[O-].[Ca+2]` [CD-3243], the “Bulk Density Loose” value [1] is reported as 0.235 g/mL and the “Bulk Density Tapped” value [1] is reported as 0.300 g/mL.
For `CC(C)(CCCCOCCCCC(C)(C)C(=O)[O-])C(=O)[O-].[Ca+2]` [CI-1027, 6-(5-carboxy-5-methyl-hexyloxy)-2,2-dimethylhexanoic acid monocalcium salt (1:1)], the “14C peaks found in hepatocyte incubation” value (dog hepatocytes) was “two major ^14C peaks, intact drug, and a glucuronide conjugate”, the “Mean recovery in bile” value ([2]; Fistula Rat) was 87.5 percent ^14C dose and the “Mean recovery in feces” value ([2]; Fistula Rat) was 0.72 percent ^14C dose. For the same compound, the “Mean recovery in urine” value ([2]; Fistula Rat) was 10.5 percent ^14C dose, the Mean total recovery ([2]; Fistula Rat) was 98.7 percent ^14C dose and the “Mean recovery in feces” value ([2]; Intact Rat) was 56.9 percent ^14C dose. For the same compound, the “Mean recovery in urine” value ([2]; Intact Rat) was 37.0 percent ^14C dose, the Mean total recovery ([2]; Intact Rat) was 93.9 percent ^14C dose and the “metabolite detected in bile and urine” value [3] was “acyl-glucuronide is detected”. The “share of plasma radioactivity that was unchanged drug” value [3] was ~100%, the “In vitro binding to plasma proteins” value (plasma proteins) was “species and concentration dependent” and the primary binding protein (plasma proteins) was “Albumin”. The absorption [4] was “rapidly absorbed”, the half-life [4, 13] was 5 to 7 h and the absorption [5] was “rapidly absorbed”. For the same compound, the half-life [5, 13] was 9 to 15 h, the “decrease in plasma Lp(a) compared to mice dosed with vehicle alone” value (“decrease … with vehicle alone” for short) ([6]; female mice, 3 mg/kg/day oral gavage, after 1 week) was −15% and the “decrease … with vehicle alone” value ([6]; female mice, 10 mg/kg/day oral gavage, after 1 week) was −41%. The “decrease … with vehicle alone” value ([6]; female mice, 30 mg/kg/day oral gavage, after 1 week) was −54%, the “decrease … with vehicle alone” value ([6]; female mice, 100 mg/kg/day oral gavage, after 1 week) was −61% and the “HDL cholesterol (lipoprotein profiles by HPLC)” value ([6]; female mice, after 1 week) was “remained unchanged”. For the same compound, the “LDL cholesterol (lipoprotein profiles by HPLC)” value ([6]; female mice, after 1 week) was “significant decreases”, the “decrease in plasma apoB” value ([6]; female mice, after 1 week) was “up to 30%” and the “maximum decrease in total plasma cholesterol” value ([6]; female mice, after 1 week) was 32%. The “ratio of HDL cholesterol to VLDL+LDL cholesterol” value ([6]; with treatment, control value 0.39) was 0.65, the “Mean recovery in bile” value ([7]; Fistula Monkey) was 42.0 percent ^14C dose and the “Mean recovery in feces” value ([7]; Fistula Monkey) was 3.82 percent ^14C dose. For the same compound, the “Mean recovery in urine” value ([7]; Fistula Monkey) was 62.2 percent ^14C dose, the Mean total recovery ([7]; Fistula Monkey) was 108 percent ^14C dose and the “Mean recovery in feces” value ([7]; Monkey (intact)) was 17.3 percent ^14C dose. For the same compound, the “Mean recovery in urine” value ([7]; Monkey (intact)) was 78.1 percent ^14C dose, the Mean total recovery ([7]; Monkey (intact)) was 95.4 percent ^14C dose and the “14C peaks found in hepatocyte incubation” value (rat hepatocytes) was “two major ^14C peaks, intact drug, and a glucuronide conjugate”. The “Lp(a) lowering” value ([8]; 3 mg/kg/day) was −9%, the “Lp(a) lowering” value ([8]; 10 mg/kg/day) was −23% and the “Lp(a) lowering” value ([8]; 30 mg/kg/day) was −64%. For the same compound, the “Lp(a) lowering” value ([8]; 100 mg/kg/day) was −68%, the “Lp(a) lowering” value ([8]; 300 mg/kg/day) was −87% and the HDL cholesterol ([8]; 3-300 mg/kg) was “decreased”. For the same compound, the total plasma cholesterol ([8]; 3-300 mg/kg) was “decreased”, the “14C peaks found in hepatocyte incubation” value (monkey hepatocytes) was “two major ^14C peaks, intact drug, and a glucuronide conjugate” and the absorption [9] was “rapidly absorbed”. For the same compound, the half-life [9, 13] was 17 to 31 h, the Oral bioavailability [10] was “appeared to be high” and the enterohepatic recirculation [10] was “seemed to undergo enterohepatic recirculation”. For the same compound, the linearity of pharmacokinetics [10] was “nonlinear”.
With `CC(C)(CCCCOCCCCC(C)(C)C(=O)O)C(=O)O` [Example 1, 6-(5-carboxy-5-methyl-hexyloxy)-2,2-dimethylhexanoic acid monocalcium salt hydrate, Crystalline Form 1] the “electrostatic character of bulk product” value ([11]; listed as CI-1027 hydrate Crystalline Form 1) was “less electrostatic than the amorphous form”, the “electrostatic character of bulk product” value ([11]; listed as Crystal Form 1) was “less capable of retaining an electrostatic charge” and the “Physical Properties of Solid (hygroscopic status)” value (from here on “Physical Properties of Solid”) [12] was “None to Slight Hygroscopic”.
In the case of `CC(C)(CCCCOCCCCC(C)(C)C(=O)O)C(=O)O` [Example 12, 6-(5-carboxy-5-methyl-hexyloxy)-2,2-dimethylhexanoic acid monocalcium salt. Crystalline Form 2], the “electrostatic character of bulk product” value ([11]; listed as Crystal Form 2, monocalcium salt) is reported as “less capable of retaining an electrostatic charge”.
With `CC(C)(CCCCOCCCCC(C)(C)C(=O)[O-])C(=O)[O-].C[N+](C)(C)CCO.C[N+](C)(C)CCO` [di-choline] the “Physical Form” value [12] was “Oil”.
For `CC(C)(CCCCOCCCCC(C)(C)C(=O)[O-])C(=O)[O-].[K+].[K+]` [di-potassium], the “Physical Form” value [12] was “Solid” and the “Physical Properties of Solid” value [12] was “Very Hygroscopic”.
With `CC(C)(CCCCOCCCCC(C)(C)C(=O)[O-])C(=O)[O-].[Na+].[Na+]` [di-sodium] the “Physical Form” value [12] was “Solid” and the “Physical Properties of Solid” value [12] was “Very Hygroscopic”.
In the case of `CC(C)(CCCCOCCCCC(C)(C)C(=O)O)C(=O)[O-].C[N+](C)(C)CCO` [mono-choline], the “Physical Form” value [12] is reported as “Oil”.
